According to PMC5667507, “A novel ^18F-labelled high affinity agent for PET imaging of the translocator protein” (Chemical Science, 2015):

Experiments:
[1] = Metabolite analysis of arterial blood samples from baboon (parent fraction); format: in vivo, baboon (Papio anubis); settings: baboon arterial plasma, 60 minutes post-injection
Experimental: Following PET reconstruction and co-registration to an MRI (Fig. 7a), a time–activity curve for the tracer in the whole brain was established (Fig. 7b). […]
generated and SUV determined as the concentration in the VOI divided by the injected dose divided […]
software (GraphPad Softare Inc).
Arterial blood samples were collected from the baboon every 45 s until 6 min after injection of […]
exception of the samples collected for metabolite analysis (3.5 mL each), all blood samples were 1 mL each. Samples for metabolite analysis were collected at 6, 15, 30, 60, 120, 150 and 240 min after radiotracer bolus injection. After blood collection, all samples were kept on ice until analysed.
Radioactivity in whole blood and plasma was assessed with a well-type γ-counter using a 400–1400 keV window (Perkin Elmer Wallac 2480, USA). Plasma samples were processed by acetonitrile denaturation and analysed by HPLC on a Luna C18 column with a mobile phase of MeOH/H2O-Et3N (0.2%) 80/20 at a flow rate of 4 mL/min to estimate the parent fraction.

TSPO [2] = assay: In vitro autoradiography, brain sections of G7 orthotopic mouse model of human glioblastoma; format: binding
Description: (§1) An initial investigation of the potential of [^18F]-AB5186 6 to bind to TSPO in brain involved in vitro autoradiography using a G7 orthotopic mouse model of human glioblastoma.[25] Autoradiography allows the distribution of a radiolabelled compound to be visualised in intact biological tissue sections.[26] […] Displacement of [^18F]-AB5186 6 by the TSPO ligand PK11195 confirms the in vitro specificity of the tracer for TSPO in brain tissue.
(§2) The fraction containing 18F-AB5186 6 was concentrated in vacuo and then reconstituted in 2 mL of a 10% ethanol/0.9% saline solution. Passing the sample through a pre-treated 13 mm 0.2 µm filter then completed formulation of the radiotracer. The identity of the radiolabelled product was confirmed by co-injection with a cold sample of AB5186 6. Quality control was performed by analytical HPLC, using a Phenomenex Synergi 4 µm Hydro-RP 80A (150 × 4.60 mm) column and the mobile phase described above for the semi-prep HPLC purification step. Radiochemical purity was determined by measuring the area under the peaks on the chromatogram, and specific activity was calculated using a standard curve.
(§3) 8. Radio-HPLC chromatogram of [18F]-AB5186 (6) after purification
(§4) CD1 nude mice had […] of either G7 or U87MG-Luc2 cultured cells implanted intracranially into the caudate nucleus using standard stereotactic procedures. Successful implantation of U87MG-Luc2 tumours was confirmed by performing IVIS® scans approximately two weeks following the procedure. Animals were used for ex vivo autoradiography and PET imaging studies 21–30 days post tumour implantation. Prior to any procedure mice were anaesthetised using inhaled isoflurane (in medical oxygen; induction 5.0%; maintenance 2.0–3.0%). Body temperature was maintained using a heating pad.
(§5) 10. In vitro Autoradiography5 Methodology
(§6) The brain from a mouse bearing an intracranial G7 tumour was used. […]
(§7) temperature. Non-specific binding was determined in adjacent sections by incubating with [18F]- AB5186 6 in the presence of 10 µM PK11195 (Tocris, UK). […]

TSPO [3] = molecular target: T1, TSPO (Mus musculus, UniProt P50637); assay: as above; format: binding; settings: contralateral region; 3 nM tracer, 10 µM PK11195
T1 construct: The brain from a mouse bearing an intracranial G7 tumour was used; from tissue; host or cells: 20 µm coronal cryosections of CD1 nude mouse brain with an intracranial G7 human glioblastoma xenograft
T1 sequence (P50637 whole entry): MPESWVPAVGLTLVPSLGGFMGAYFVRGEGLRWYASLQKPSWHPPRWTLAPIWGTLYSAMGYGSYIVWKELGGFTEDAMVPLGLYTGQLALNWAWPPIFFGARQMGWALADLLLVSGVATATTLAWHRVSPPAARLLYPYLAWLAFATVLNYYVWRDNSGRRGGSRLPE
Description: as §1, §2, §3, §4, §5, §6, §7

CCN(CC)C(=O)c1nc2ccccc2c(-c2ccccc2)c1C[18F] [[^18F]-AB5186 6]
parent still intact [1]: 29.8% | total binding, tumour tissue compared to contralateral side (TSPO [2]; in vitro autoradiograms, G7 xenograft): markedly increased | displacement of tracer binding by excess unlabelled PK11195 (TSPO [2]; tumour tissue, 3 nM tracer, 10 µM PK11195): 76% | displacement of tracer binding by excess unlabelled PK11195 (TSPO [3]): 23%
